Source: article PMC12154458, “High-Throughput Screens of Repurposing Hub and DOS Chemical Libraries Reveal Compounds with Novel and Potent Inhibitory Activity Against the Essential Non-Neuronal Acetylcholinesterase of Schistosoma mansoni (SmTAChE)” (International Journal of Molecular Sciences, 2025)
Structures can show the parent of a compound that is named as a salt. Where two headings read alike, the source gives them in different places.

Experiments:
rSmTAChE [1] = target: T1, rSmTAChE (Schistosoma mansoni, UniProt A0A3Q0KMM5); experiment: biochemical
rSmTAChE [2] = target: T1, rSmTAChE; type: biochemical; conditions: for IC50: read-out: qAC50 (IC50), rSmTAChE
[3] = target: recombinant human acetylcholinesterase, rHsAChE (Homo sapiens, UniProt P22303); experiment: biochemical; conditions: for inhibition of rHsAChE, result in words: dose–response, up to 40 µM
[4] = read-out: qAC50 (IC50), rHsAChE
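For Inhibition (%) (Average) in this document: mostly 20 µM final but a few compounds at 5 or 10 µM.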
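For Inhibition (%) Replicate A in this document: mostly 20 µM final but a few compounds at 5 or 10 µM.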
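For Inhibition (%) Replicate B in this document: mostly 20 µM final but a few compounds at 5 or 10 µM.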

T1 sequence (A0A3Q0KMM5 27-661 limits assumed): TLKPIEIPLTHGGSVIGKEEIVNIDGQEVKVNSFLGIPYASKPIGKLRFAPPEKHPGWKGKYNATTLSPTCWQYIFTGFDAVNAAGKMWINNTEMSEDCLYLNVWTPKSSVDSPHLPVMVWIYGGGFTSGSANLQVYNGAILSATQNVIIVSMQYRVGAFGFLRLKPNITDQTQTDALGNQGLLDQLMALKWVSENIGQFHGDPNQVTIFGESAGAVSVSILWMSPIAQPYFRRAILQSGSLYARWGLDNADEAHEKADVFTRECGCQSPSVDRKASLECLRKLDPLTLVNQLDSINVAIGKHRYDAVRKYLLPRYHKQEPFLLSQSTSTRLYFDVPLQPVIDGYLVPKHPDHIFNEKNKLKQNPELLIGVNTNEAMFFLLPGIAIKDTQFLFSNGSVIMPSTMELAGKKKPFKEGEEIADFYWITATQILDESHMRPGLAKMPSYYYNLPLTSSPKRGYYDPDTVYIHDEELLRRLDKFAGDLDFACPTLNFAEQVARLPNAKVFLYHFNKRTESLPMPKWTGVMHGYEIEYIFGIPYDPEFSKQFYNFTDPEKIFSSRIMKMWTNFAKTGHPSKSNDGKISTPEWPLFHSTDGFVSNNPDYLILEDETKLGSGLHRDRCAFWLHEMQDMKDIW
Chain of recombinant human acetylcholinesterase, rHsAChE (P22303 32-614): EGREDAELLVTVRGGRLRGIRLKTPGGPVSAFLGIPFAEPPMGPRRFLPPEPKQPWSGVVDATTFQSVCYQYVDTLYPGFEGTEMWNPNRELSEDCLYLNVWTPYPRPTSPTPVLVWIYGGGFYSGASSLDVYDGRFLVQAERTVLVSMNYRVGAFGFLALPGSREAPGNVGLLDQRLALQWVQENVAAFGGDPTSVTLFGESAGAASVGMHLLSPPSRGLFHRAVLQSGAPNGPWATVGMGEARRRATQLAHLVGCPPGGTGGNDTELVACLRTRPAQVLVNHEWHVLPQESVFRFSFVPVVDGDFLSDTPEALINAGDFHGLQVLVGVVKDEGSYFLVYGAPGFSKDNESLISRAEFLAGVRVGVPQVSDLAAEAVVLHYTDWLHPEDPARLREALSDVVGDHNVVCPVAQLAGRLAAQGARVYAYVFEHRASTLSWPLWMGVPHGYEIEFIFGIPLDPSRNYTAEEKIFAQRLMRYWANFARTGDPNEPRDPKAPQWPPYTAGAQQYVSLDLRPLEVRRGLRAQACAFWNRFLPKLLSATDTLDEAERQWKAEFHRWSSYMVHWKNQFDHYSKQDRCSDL

SMILES | Inhibition (%) (Average) (rSmTAChE [1]) | Inhibition (%) Replicate A (rSmTAChE [1]) | Inhibition (%) Replicate B (rSmTAChE [1]) | Data Mode (curve class), rSmTAChE (rSmTAChE [2]) | Data Mode (curve class), rHsAChE [3] | other results
COCCOc1ccc2c(c1)ncn2-c1ccc2cccc(N3CCC(N)CC3)c2n1 [BRD-K43621685-001-03-3] | 79.32% | 80.31% | 78.32% | decreasing (weakly active) | decreasing | IC50 (rSmTAChE [2]): > 38 µM; IC50 [3, 4]: 20.7 µM
CCCC#Cc1ccc([C@H]2[C@@H](CO)N3C(=O)CN(S(=O)(=O)c4ccccc4C)C[C@@H]23)cc1 [BRD-K77990919-001-01-3] | 79.61% | 76.02% | 83.20% | – | – | rSmTAChE Data Mode (rSmTAChE [2]): inactive; rHsAChE Data Mode [3]: inactive
CCCCC/C=C\C/C=C\C/C=C\C/C=C\CCCC(=O)Nc1ccc(O)cc1 [BRD-K55462201-001-07-3] | 74.15% | 71.40% | 76.90% | inactive | decreasing | IC50 [3, 4]: 22.4 µM
Brc1cc2c(cc1[C@@H]1Nc3ccccc3[C@@H]3C=CC[C@@H]31)OCO2 [G15, reference compound] | – | 75.36% | 80.61% | decreasing (weakly active) | decreasing (weakly active) | rSmTAChE HTS Inhibition (Ave, %) (rSmTAChE [1]; 20 µM): 77.99%; SI (Sm/Hs) [3]: 2.81; IC50 ([3]; read-out: IC50 (µM) rHsAChE): > 13.5 µM
O=C(Nc1ccccc1Br)N[C@@H]1CCN(c2ccc(C(F)(F)F)cn2)C1 [BRD-K65991129-001-02-9] | 65.52% | 67.06% | 63.99% | inactive | inactive | –
O=C(C[C@@H]1C[C@@H]2c3cc(NC(=O)NC4CCCC4)ccc3O[C@@H]2[C@@H](CO)O1)NCc1ccccc1F [BRD-K71334452-001-01-3] | 89.18% | 90.25% | 88.11% | – | – | rSmTAChE Data Mode (rSmTAChE [2]): inactive; rHsAChE Data Mode [3]: inactive
C[C@]12CC[C@@H]3c4ccc(O)cc4C[C@@H](CCCCCCCCC[S+]([O-])CCCC(F)(F)C(F)(F)F)[C@H]3[C@@H]1CC[C@@H]2O (some centres unmarked) [BRD-A85667082-001-12-7] | – | – | – | decreasing (weakly active) | inactive | IC50 (rSmTAChE [2]): > 38 µM
C[C@]12CC[C@@H]3c4ccc(O)cc4C[C@@H](CCCCCCCCC[S+]([O-])CCCC(F)(F)C(F)(F)F)[C@H]3[C@@H]1CC[C@@H]2O (some centres unmarked) [BRD-A85667082-001-10-1] | 87.19% | 87.84% | 86.54% | – | – | –
CNC(=O)Oc1ccc2c(c1)[C@]1(C)CCN(C)[C@@H]1N2C [Physostigmine salicylate, reference compound] | – | – | – | decreasing | decreasing | –
C/C=C1\[C@H]2C=C(C)C[C@]1(N)c1ccc(=O)[nH]c1C2 [Huperzine A, reference compound] | – | – | – | decreasing | – | inhibition at 20 µM (rSmTAChE [1]; read-out: rSmTAChE HTS Inhibition (Ave, %)): 64.1%
Nc1ccc(O)c(C(=O)O)c1 [Mesalazine, reference compound] | – | – | – | decreasing | – | IC50 (µM) rHsAChE [3]: Inactive; inhibition of rHsAChE, result in words [3]: no detectable inhibitory effect; inhibition of rHsAChE, result in words ([3]; listed as #19): no inhibition detected
C[C@H](Oc1cc(-c2cnn(C3CCNCC3)c2)cnc1N)c1c(Cl)ccc(F)c1Cl [BRD-K40308497-001-02-0] | – | – | – | decreasing | decreasing | IC50 (rSmTAChE [2]): 26.8 µM; IC50 [3, 4]: 21.2 µM
CCCCCCCCc1ccc(CCC(N)(CO)CO)cc1 [BRD-K88025533-003-03-3] | 70.74% | 73.25% | 68.23% | – | – | –
CC(C)(O)c1ccccc1CC[C@@H](SCC1(CC(=O)O)CC1)c1cccc(/C=C/c2ccc3ccc(Cl)cc3n2)c1 [BRD-K69470111-236-09-7] | 81.70% | 81.35% | 82.06% | – | – | –
CC1(C)CCC(C)(C)c2cc(C#Cc3ccc(C(=O)O)cc3)ccc21 [BRD-K81004638-001-02-5] | 66.58% | 64.60% | 68.56% | – | – | –
CCCCCCCCc1ccc(CCC(N)(CO)CO)cc1 [BRD-K88025533-003-04-1] | – | – | – | inactive | inactive | –
CC1(C)CCC(C)(C)c2cc(C#Cc3ccc(C(=O)O)cc3)ccc21 [BRD-K81004638-001-01-7] | – | – | – | decreasing | decreasing | IC50 (rSmTAChE [2]): 19.8 µM; IC50 [3, 4]: 14.5 µM
CC(C)(O)c1ccccc1CC[C@@H](SCC1(CC(=O)O)CC1)c1cccc(/C=C/c2ccc3ccc(Cl)cc3n2)c1 [BRD-K69470111-001-01-2] | – | – | – | decreasing (weakly active) | increasing (weakly active) | IC50 (rSmTAChE [2]): > 38 µM; IC50 [3, 4]: > 38 µM
CC(C)Oc1ccc(-c2cnc3c(-c4ccnc5ccccc45)cnn3c2)cc1 [BRD-K39381259-001-01-0] | – | – | – | inactive | decreasing (weakly active) | IC50 [3, 4]: > 13.5 µM
C[C@H](Oc1cc(-c2cnn(C3CCNCC3)c2)cnc1N)c1c(Cl)ccc(F)c1Cl [BRD-K40308497-001-01-2] | 86.27% | 85.50% | 87.03% | – | – | –
CC(C)Oc1ccc(-c2cnc3c(-c4ccnc5ccccc45)cnn3c2)cc1 [BRD-K39381259-001-02-8] | 67.85% | 64.38% | 71.32% | – | – | –
CNC(=O)Oc1ccc2c(c1)[C@]1(C)CCN(C)[C@@H]1N2C [Physostigmine sulfate, reference compound] | – | – | – | decreasing | decreasing | –
